Data reported in ChEMBL document CHEMBL3822432, “Antibacterial and anticancer activity of a series of novel peptides incorporating cyclic tetra-substituted C(α) amino acids” (Bioorg Med Chem, 2016).
Converted amounts (≈) assume the structure as drawn. Non-standard residues stand in square brackets, D forms with d. Residues, ends and D or L forms follow the SMILES beside them. ξ: configuration not given here. Ac6c = NC1(C(=O)O)CCCCC1; Ac5c = NC1(C(=O)O)CCCC1; ξDap = NCC(N)C(=O)O

Tests used:
Streptococcus pneumoniae = experiment: Antibacterial activity against Streptococcus pneumoniae 262 ATCC 49619 by two fold serial dilution method; type: functional
[1] = Antibacterial activity against Clostridium difficile VIP 10463 ATCC 43255 by two fold serial dilution method; type: functional, Clostridium difficile ATCC 43255; settings: Clostridioides difficile
Staphylococcus aureus [2] = experiment: Antibacterial activity against methicillin-resistant Staphylococcus aureus USA 300 NRS 384 by two fold serial dilution method; type: functional
[3] = Antiproliferative activity against human COLO205 cells after 72 hrs by Celltiter-Glo luminescent cell viability assay; type: functional, cell-based; settings: COLO 205, 72 h
[4] = Antibacterial activity against carbapenem-resistant Klebsiella pneumoniae K6 ATCC 700603 by two fold serial dilution method; type: functional, Klebsiella pneumoniae 700603
[5] = Antiproliferative activity against human UACC62 cells after 72 hrs by Celltiter-Glo luminescent cell viability assay; type: functional, cell-based; settings: UACC-62, 72 h
Klebsiella aerogenes = experiment: Antibacterial activity against carbapenem-resistant Enterobacter aerogenes NCDC819-56 ATCC 13048 by two fold serial dilution method; type: functional
[6] = Antibacterial activity against Bacillus anthracis Ames NR-3838 by two fold serial dilution method; type: functional, Bacillus anthracis str. Ames
Enterococcus faecalis = experiment: Antibacterial activity against Enterococcus faecalis Portland ATCC 29212 by two fold serial dilution method; type: functional; settings: ATCC 29212 Portland
Neisseria gonorrhoeae = experiment: Antibacterial activity against Neisseria gonorrhoeae F-18 ATCC 49226 by two fold serial dilution method; type: functional
[7] = Antibacterial activity against Salmonella enterica LT2 Typhimurium ATCC 15277 by two fold serial dilution method; type: functional
A498 = experiment: Antiproliferative activity against human A498 cells after 72 hrs by Celltiter-Glo luminescent cell viability assay; type: functional, cell-based; settings: A498, 72 h
Staphylococcus aureus [8] = experiment: Antibacterial activity against Staphylococcus aureus Seattle 1945 ATCC 25923 by two fold serial dilution method; type: functional
RL = experiment: Antiproliferative activity against human RL cells after 72 hrs by Celltiter-Glo luminescent cell viability assay; type: functional, cell-based
[9] = system: Burkholderia pseudomallei; experiment: Antibacterial activity against Burkholderia pseudomallei AHS 1 NCTC 8016 by two fold serial dilution method; type: functional
A549 = experiment: Antiproliferative activity against human A549 cells after 72 hrs by Celltiter-Glo luminescent cell viability assay; type: functional, cell-based; settings: A549, 72 h
[10] = Antibacterial activity against Francisella tularensis SCHU S4 NR-643 by two fold serial dilution method; type: functional
[11] = Antiproliferative activity against human IGROV1 cells after 72 hrs by Celltiter-Glo luminescent cell viability assay; type: functional, cell-based; settings: IGROV-1, 72 h
MCF7 = experiment: Antiproliferative activity against human MCF7 cells after 72 hrs by Celltiter-Glo luminescent cell viability assay; type: functional, cell-based; settings: MCF7, 72 h
Pseudomonas aeruginosa = experiment: Antibacterial activity against Pseudomonas aeruginosa Boston 41501 ATCC 27853 by two fold serial dilution method; type: functional
NCI-H69 = experiment: Antiproliferative activity against human NCI-H69 cells after 72 hrs by Celltiter-Glo luminescent cell viability assay; type: functional, cell-based; settings: NCI-H69, 72 h
[12] = Antibacterial activity against Yersinia pestis CO92 NR641 by two fold serial dilution method; type: functional
[13] = Antiproliferative activity against human DLD1 cells after 72 hrs by Celltiter-Glo luminescent cell viability assay; type: functional, cell-based; settings: DLD-1, 72 h
[14] = system: Mycobacterium tuberculosis; experiment: Antibacterial activity against Mycobacterium tuberculosis H37Ra ATCC 2517 by two fold serial dilution method; type: functional
CFPAC-1 = experiment: Antiproliferative activity against human CFPAC-1 cells after 72 hrs by Celltiter-Glo luminescent cell viability assay; type: functional, cell-based; settings: CFPAC-1, 72 h
Acinetobacter baumannii = experiment: Antibacterial activity against Acinetobacter baumannii B5W71 ATCC 15149 by two fold serial dilution method; type: functional
[15] = Antiproliferative activity against human PC3 cells after 72 hrs by Celltiter-Glo luminescent cell viability assay; type: functional, cell-based; settings: PC-3, 72 h
[16] = Antiproliferative activity against human MIAPaCa2 cells after 72 hrs by Celltiter-Glo luminescent cell viability assay; type: functional, cell-based; settings: MIA PaCa-2, 72 h

| Compound | MIC (Streptococcus pneumoniae) | MIC [1] | MIC (Staphylococcus aureus [2]) | IC50 [3] | MIC [4] | IC50 [5] | MIC (Klebsiella aerogenes) | MIC [6] | MIC (Enterococcus faecalis) | MIC (Neisseria gonorrhoeae) | MIC [7] | IC50 (A498) | MIC (Staphylococcus aureus [8]) | IC50 (RL) | MIC [9] | MIC [10] | MIC (Pseudomonas aeruginosa) | MIC [12] | MIC [14] | MIC (Acinetobacter baumannii) | other results |
| --- | --- | --- | --- | --- | --- | --- | --- | --- | --- | --- | --- | --- | --- | --- | --- | --- | --- | --- | --- | --- | --- |
| CN[C@@H](CC(C)C)C(=O)N[C@H]1C(=O)N[C@@H](CC(N)=O)C(=O)N[C@H]2C(=O)N[C@H]3C(=O)N[C@H](C(=O)N[C@@H](C(=O)O)c4cc(O)cc(O)c4-c4cc3ccc4O)[C@H](O)c3ccc(c(Cl)c3)Oc3cc2cc(c3O[C@H]2O[C@@H](CO)[C@H](O)[C@@H](O)[C@@H]2O[C@@H]2C[C@@](C)(N)[C@@H](O)[C@@H](C)O2)Oc2ccc(cc2Cl)[C@H]1O | 1.99 µM (≈ 2.88 µg/mL) | 0.17 µM (≈ 0.246 µg/mL) | 2.7 µM (≈ 3.91 µg/mL) | – | – | – | – | – | – | – | – | – | – | – | – | – | – | – | – | – | – |
| CC(=O)NCC(=O)N[C@@H](Cc1ccccc1)C(=O)NC1(C(=O)NCC(=O)NC2(C(=O)N[C@@H](CCCCN)C(=O)NC3(C(=O)NCC(=O)NC4(C(=O)N[C@@H](Cc5ccccc5)C(=O)NC5(C(=O)NCC(=O)NC6(C(=O)NCC(=O)N[C@@H](CCCCN)C(=O)NC7(C(=O)N[C@@H](CCCCN)C(=O)N[C@@H](CCCCN)C(=O)N[C@@H](CCCCN)C(=O)N[C@@H](CCCCN)C(N)=O)CCCC7)CCCC6)CCCC5)CCCC4)CCCC3)CCCC2)CCCC1 (Ac-GF[Ac5c]G[Ac5c]K[Ac5c]G[Ac5c]F[Ac5c]G[Ac5c]GK[Ac5c]KKKK-NH2) | > 46 µM | 1.43 µM (≈ 3.13 µg/mL) | > 46 µM | > 7.5 µM | > 46 µM | > 7.5 µM | > 46 µM | > 46 µM | > 46 µM | 22.9 µM (≈ 50 µg/mL) | 5.71 µM (≈ 12.5 µg/mL) | > 7.5 µM | > 46 µM | > 7.5 µM | > 46 µM | 22.9 µM (≈ 50 µg/mL) | 22.9 µM (≈ 49.9 µg/mL) | > 46 µM | 11.4 µM (≈ 25 µg/mL) | 2.86 µM (≈ 6.25 µg/mL) | IC50 (A549): > 7.5 µM; IC50 [11]: > 7.5 µM; IC50 (MCF7): > 7.5 µM; IC50 (NCI-H69): > 7.5 µM; IC50 [13]: > 7.5 µM; IC50 (CFPAC-1): > 7.5 µM; IC50 [15]: > 7.5 µM; IC50 [16]: > 7.5 µM |
| CC(=O)NCC(=O)N[C@@H](Cc1ccccc1)C(=O)NC1(C(=O)NCC(=O)NC2(C(=O)N[C@@H](CCCNC(=N)N)C(=O)NC3(C(=O)NCC(=O)NC4(C(=O)N[C@@H](Cc5ccccc5)C(=O)NC5(C(=O)NCC(=O)NC6(C(=O)NCC(=O)N[C@@H](CCCNC(=N)N)C(=O)NC7(C(=O)N[C@@H](CCCNC(=N)N)C(=O)N[C@@H](CCCNC(=N)N)C(=O)N[C@@H](CCCNC(=N)N)C(=O)N[C@@H](CCCNC(=N)N)C(N)=O)CCCC7)CCCC6)CCCC5)CCCC4)CCCC3)CCCC2)CCCC1 (Ac-GF[Ac5c]G[Ac5c]R[Ac5c]G[Ac5c]F[Ac5c]G[Ac5c]GR[Ac5c]RRRR-NH2) | > 43 µM | 5.31 µM (≈ 12.5 µg/mL) | 5.31 µM (≈ 12.5 µg/mL) | > 7.5 µM | 5.31 µM (≈ 12.5 µg/mL) | > 7.5 µM | > 42.4 µM | 2.65 µM (≈ 6.24 µg/mL) | 5.31 µM (≈ 12.5 µg/mL) | 5.31 µM (≈ 12.5 µg/mL) | 42.4 µM (≈ 99.9 µg/mL) | > 7.5 µM | 2.65 µM (≈ 6.24 µg/mL) | 3.7 µM | > 43 µM | 21.2 µM (≈ 49.9 µg/mL) | 2.65 µM (≈ 6.24 µg/mL) | > 43 µM | 21.2 µM (≈ 49.9 µg/mL) | 2.65 µM (≈ 6.24 µg/mL) | IC50 (A549): > 7.5 µM; IC50 [11]: > 7.5 µM; IC50 (MCF7): > 7.5 µM; IC50 (NCI-H69): 7.1 µM; IC50 [13]: > 7.5 µM; IC50 (CFPAC-1): > 7.5 µM; IC50 [15]: > 7.5 µM; IC50 [16]: > 7.5 µM |
| CC(=O)NCC(=O)N[C@@H](Cc1ccccc1)C(=O)NC1(C(=O)NCC(=O)NC2(C(=O)N[C@@H](CCCCN)C(=O)NC3(C(=O)NCC(=O)NC4(C(=O)N[C@@H](Cc5ccccc5)C(=O)NC5(C(=O)NCC(=O)NC6(C(=O)NCC(=O)N[C@@H](CCCCN)C(=O)NC7(C(=O)N[C@@H](CCCCN)C(=O)N[C@@H](CCCCN)C(=O)N[C@@H](CCCCN)C(=O)N[C@@H](CCCCN)C(N)=O)CCCC7)CCCCC6)CCCC5)CCCCC4)CCCC3)CCCCC2)CCCC1 (Ac-GF[Ac5c]G[Ac6c]K[Ac5c]G[Ac6c]F[Ac5c]G[Ac6c]GK[Ac5c]KKKK-NH2) | > 45 µM | 1.4 µM (≈ 3.12 µg/mL) | > 45 µM | > 7.5 µM | 44.8 µM (≈ 99.9 µg/mL) | > 7.5 µM | > 45 µM | 22.4 µM (≈ 49.9 µg/mL) | > 45 µM | 11.2 µM (≈ 25 µg/mL) | 11.2 µM (≈ 25 µg/mL) | > 7.5 µM | 44.5 µM (≈ 99.1 µg/mL) | 6.7 µM | > 45 µM | 22.4 µM (≈ 49.9 µg/mL) | 5.61 µM (≈ 12.5 µg/mL) | > 45 µM | 22.4 µM (≈ 49.9 µg/mL) | > 45 µM | IC50 (A549): > 7.5 µM; IC50 [11]: > 7.5 µM; IC50 (MCF7): > 7.5 µM; IC50 (NCI-H69): 5.9 µM; IC50 [13]: > 7.5 µM; IC50 (CFPAC-1): > 7.5 µM; IC50 [15]: > 7.5 µM; IC50 [16]: > 7.5 µM |
| CC(=O)NCC(=O)N[C@@H](Cc1ccccc1)C(=O)NC1(C(=O)NCC(=O)NC2(C(=O)NC(CN)C(=O)NC3(C(=O)NCC(=O)NC4(C(=O)N[C@@H](Cc5ccccc5)C(=O)NC5(C(=O)NCC(=O)NC6(C(=O)NCC(=O)NC(CN)C(=O)NC7(C(=O)NC(CN)C(=O)NC(CN)C(=O)NC(CN)C(=O)NC(CN)C(N)=O)CCCCC7)CCCCC6)CCCCC5)CCCCC4)CCCCC3)CCCCC2)CCCCC1 (some centres undefined) (Ac-GF[Ac6c]G[Ac6c][ξDap][Ac6c]G[Ac6c]F[Ac6c]G[Ac6c]G[ξDap][Ac6c][ξDap][ξDap][ξDap][ξDap]-NH2) | 24.6 µM (≈ 50 µg/mL) | 3.08 µM (≈ 6.26 µg/mL) | 6.16 µM (≈ 12.5 µg/mL) | – | 3.08 µM (≈ 6.26 µg/mL) | – | 1.54 µM (≈ 3.13 µg/mL) | 6.16 µM (≈ 12.5 µg/mL) | 3.08 µM (≈ 6.26 µg/mL) | 6.16 µM (≈ 12.5 µg/mL) | 24.6 µM (≈ 50 µg/mL) | – | 6.16 µM (≈ 12.5 µg/mL) | – | > 49 µM | 49.2 µM (≈ 99.9 µg/mL) | 3.08 µM (≈ 6.26 µg/mL) | > 49 µM | 24.6 µM (≈ 50 µg/mL) | > 48 µM | – |
| C[C@H]1c2cccc(O)c2C(=O)C2=C(O)[C@]3(O)C(=O)C(C(N)=O)=C(O)[C@@H](N(C)C)[C@@H]3[C@@H](O)[C@@H]21 [DOXYCYCLINE] | – | – | – | – | – | – | – | 0.87 µM (≈ 0.387 µg/mL) | – | – | – | – | – | – | – | 1.1 µM (≈ 0.489 µg/mL) | – | 1.1 µM (≈ 0.489 µg/mL) | – | – | – |
| CN[C@@H]1[C@H](O[C@H]2[C@H](O[C@H]3[C@H](O)[C@@H](O)[C@H](N=C(N)N)[C@@H](O)[C@@H]3N=C(N)N)O[C@@H](C)[C@]2(O)C=O)O[C@@H](CO)[C@H](O)[C@H]1O [STREPTOMYCIN] | – | – | – | – | – | – | – | – | – | – | – | – | – | – | – | – | – | – | 3.4 µM (≈ 1.98 µg/mL) | – | – |
| CN(C)[C@@H]1C(O)=C(C(N)=O)C(=O)[C@@]2(O)C(O)=C3C(=O)c4c(O)cccc4[C@@](C)(O)[C@H]3C[C@@H]12 [TETRACYCLINE] | – | – | – | – | – | – | – | – | – | 2.25 µM (≈ 1 µg/mL) | – | – | – | – | 4.5 µM (≈ 2 µg/mL) | – | – | – | – | – | – |
